Measured values reported in PMC6468496 (2019).
Each block holds one compound with its values, some of them ahead of it.

Assays:
Assay in all cases: fluorescence titration (ligand quenching)
Conditions in all cases: 125 mM K+, 5 mM Mg2+; 40 mM HEPES pH 7.4, 25 °C, 50 nM ligand, RNA titrated, Hill fit
[1] = tested on: R10K6 (RNA, aptamer) GGGAGACGCAACUGAAUGAAAAUGUCAUUCAAGACUAGGUUGUGACUGCUUAGGCAGUUGUGGACGGCUAAGCCCACCAGAGGUCCGUAACUAGUCGCGUCAC
[2] = tested on: R10K6_V11 (RNA, aptamer) GGGAGACGCAACAGACUAGGUUGUGACUGCUUAGGCAGUUGUGGACGGCUAAGCCCACCAGAGGUCCGUAACUAGUCGCGUCAC
[3] = tested on: V8 (R10K6 without stem P5a) (RNA, aptamer) GGGAGACGCAACUGAAUGAAAAUGUCAUUCAAGACUAGGUUGUGACUGCUUAGGCAGUUGUGGACACCAGAGGUCCGUAACUAGUCGCGUCAC
[4] = tested on: V10 (R10K6 with changed J5a/5) (RNA, aptamer) GGGAGACGCAACUGAAUGAAAAUGUCAUUCAAGACUAGGUUGUGACUGCUUAGGCAGUUGUGGACGGCUAAGCCCAAACAAAGUCCGUAACUAGUCGCGUCAC
[5] = tested on: V13 (R10K6 ∆P1∆P2) (RNA, aptamer) GACUAGGUUGUGACUGCUUAGGCAGUUGUGGACGGCUAAGCCCACCAGAGGUCCGUAACUAGUC
[6] = tested on: V4 (R10K6 without P5 and P5a) (RNA, aptamer) GGGAGACGCAACUGAAUGAAAAUGUCAUUCAAGACUAGGUUGUGACUGCUUAGGCAGUUGUAACUAGUCGCGUCAC
[7] = tested on: V17 (R10K6 with shortened P4) (RNA, aptamer) GGGAGACGCAACUGAAUGAAAAUGUCAUUCAAGACUAGGUUGUGACAAAGGUUGUGGACGGCUAAGCCCACCAGAGGUCCGUAACUAGUCGCGUCAC

KD [1]: 31 nM | KD [2]: 36 nM | KD [3]: 76 nM | KD [4]: 101 nM | KD [5]: 473 nM | binding [6]: no | binding [7]: no
Compound: O=C(O)c1cn(C2CC2)c2cc(N3CCNCC3)c(F)cc2c1=O

binding [1]: yes
Compound: CCN1CCN(c2cc3c(cc2F)c(=O)c(C(=O)O)cn3C2CC2)CC1

binding [1]: yes
Compound: CN1C[C@@H]2C[C@H]1CN2c1cc2c(cc1F)c(=O)c(C(=O)O)cn2C1CC1

binding [1]: weak
Compound: O=c1ccn(C2CC2)c2cc(N3CCNCC3)c(F)cc12

binding [1]: yes
Compound: CCn1cc(C(=O)O)c(=O)c2cc(F)c(N3CCNCC3)cc21
